# Data taken from US11673910B2, “Macrolides with modified desosamine sugars and uses thereof” (Zikani Therapeutics, Inc., priority 2017, dated 2023).
# Assays:
# Assay type in all cases: cell-based
# [1] = tested on: P. aeruginosa strain MP-3; assay: Broth dilution MIC determination (CLSI) against P. aeruginosa strain MP-3; settings: Pseudomonas aeruginosa, MP3
# Summary of the method: (§1)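 Growth inhibition endpoint determined under CLSI broth dilution conditions. Categorical MIC output in mg/L: +++ (≤4), ++ (≥8, <32), + (≥32).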
# S. aureus strain MP-12 = assay: Broth dilution MIC determination (CLSI) against S. aureus strain MP-12; settings: Staphylococcus aureus, MP12, strain MP-12
# Summary of the method: as §1
# E. coli strain MP-4 = assay: Broth dilution MIC determination (CLSI) against E. coli strain MP-4; settings: Escherichia coli, MP4
# Summary of the method: as §1
# [2] = tested on: K. pneumoniae strain MP-548; assay: Broth dilution MIC determination (CLSI) against K. pneumoniae strain MP-548; settings: Klebsiella pneumoniae, MP548
# Summary of the method: as §1
# [3] = tested on: A. baumannii strain MP-15; assay: Broth dilution MIC determination (CLSI) against A. baumannii strain MP-15; settings: Acinetobacter baumannii, MP15
# Summary of the method: as §1
SMILES,MIC [1] [µg/mL],MIC (S. aureus strain MP-12) [µg/mL],MIC (E. coli strain MP-4) [µg/mL],MIC [2] [µg/mL],MIC [3] [µg/mL]
"CC[C@H]1OC(=O)C(C)C(=O)[C@H](C)[C@@H](O[C@@H]2O[C@H](CCC3CC3)CC(N(C)C)[C@H]2O)[C@](C)(OC)C[C@@H](C)CN[C@H](C)[C@H]2NC(=O)O[C@@]21C (stereo partly shown) [Compound 185, 3-Descladinosyl-3-oxo-6-O-methyl-N9a-desmethyl-11,12-dideoxy-12,11-(oxycarbonylimino)-6′-cyclopropylmethyl Azithromycin]",≥ 32,8 to 32,8 to 32,≥ 32,8 to 32
"CC[C@H]1OC(=O)C(C)C(=O)[C@H](C)[C@@H](OC2OC(CN3CCCCC34CC4)CC(N(C)C)C2O)[C@](C)(OC)C[C@@H](C)CN[C@H](C)[C@H]2NC(=O)O[C@@]21C (stereo partly shown) [Compound 135, 3-Descladinosyl-3-oxo-6-O-methyl-N9a-desmethyl-11,12-dideoxy-12,11-(oxycarbonylimino)-6′-(4″-azaspiro[2″.5″]octanyl)amino Azithromycin]",≥ 32,8 to 32,≤ 4,8 to 32,≤ 4
CC[C@H]1OC(=O)C(C)C(=O)[C@H](C)[C@@H](O[C@@H]2OC(CNc3cccnc3)CC(N(C)C)C2O)[C@](C)(OC)C[C@@H](C)CN[C@H](C)[C@H]2NC(=O)O[C@@]21C (stereo partly shown) [Compound 52],≥ 32,≥ 32,≤ 4,8 to 32,≥ 32
CC[C@H]1OC(=O)[C@@]2(C)CCO[C@](C)(C[C@@H](C)CN[C@H](C)[C@H]3NC(=O)O[C@@]31C)[C@H](O[C@@H]1O[C@H](CNC34CC(C3)C4)C[C@H](N(C)C)[C@H]1O)[C@@H](C)C2=O [Compound 204],≥ 32,≤ 4,≤ 4,≤ 4,8 to 32
CC[C@H]1OC(=O)C(C)C(=O)[C@H](C)[C@@H](O[C@@H]2OC(CNCc3ccc(C#N)cc3)CC(N(C)C)C2O)[C@](C)(OC)C[C@@H](C)CN[C@H](C)[C@H]2NC(=O)O[C@@]21C (stereo partly shown) [Compound 40],≥ 32,≥ 32,≤ 4,≥ 32,≥ 32
"CC[C@H]1OC(=O)C(C)C(=O)[C@H](C)[C@@H](OC2OC(CNCC(=O)OC)CC(N(C)C)C2O)[C@](C)(OC)C[C@@H](C)CN[C@H](C)[C@H]2NC(=O)O[C@@]21C (stereo partly shown) [Compound 127, 3-Descladinosyl-3-oxo-6-O-methyl-N9a-desmethyl-11,12-dideoxy-12,11-(oxycarbonylimino)-6′-(methyl aminomethylcarboxylate) Azithromycin]",≥ 32,≥ 32,≤ 4,8 to 32,≥ 32
CC[C@H]1OC(=O)C(C)C(=O)[C@H](C)[C@@H](O[C@@H]2OC(CNc3ccc4ncncc4c3)CC(N(C)C)C2O)[C@](C)(OC)C[C@@H](C)CN[C@H](C)[C@H]2NC(=O)O[C@@]21C (stereo partly shown) [Compound 27],≥ 32,≥ 32,8 to 32,≥ 32,≥ 32
"CC[C@H]1OC(=O)C(C)C(=O)[C@H](C)[C@@H](OC2OC(CNCCN(C)C)CC(N(C)C)C2O)[C@](C)(OC)C[C@@H](C)CN[C@H](C)[C@H]2NC(=O)O[C@@]21C (stereo partly shown) [Compound 130, 3-Descladinosyl-3-oxo-6-O-methyl-N9a-desmethyl-11,12-dideoxy-12,11-(oxycarbonylimino)-6′-[(2-dimethylamino)ethylamino]Azithromycin]",≥ 32,≥ 32,≥ 32,≥ 32,≥ 32
CCCCCCCCCCNCC1CC(N(C)C)C(O)[C@H](O[C@@H]2[C@@H](C)C(=O)C(C)C(=O)O[C@H](CC)[C@@]3(C)OC(=O)N[C@@H]3[C@@H](C)NC[C@H](C)C[C@@]2(C)OC)O1 (stereo partly shown) [Compound 55],≥ 32,≥ 32,8 to 32,≥ 32,≥ 32
CC[C@H]1OC(=O)[C@@](C)(F)C(=O)[C@H](C)[C@@H](O[C@@H]2OC(CNCc3ccccn3)CC(N(C)C)C2O)[C@](C)(OC)C[C@@H](C)C(=O)[C@H](C)[C@H]2NC(=O)O[C@@]21C (stereo partly shown) [Compound 100],≥ 32,≤ 4,8 to 32,≥ 32,≥ 32
"CC[C@H]1OC(=O)C(C)C(=O)[C@H](C)[C@@H](OC2OC(CNCCO)CC(N(C)C)C2O)[C@](C)(OC)C[C@@H](C)CN[C@H](C)[C@H]2NC(=O)O[C@@]21C (stereo partly shown) [Compound 115, 3-Descladinosyl-3-oxo-6-O-methyl-N9a-desmethyl-11,12-dideoxy-12,11-(oxycarbonylimino)-6′-(2-hydroxyethylamino) Azithromycin]",≥ 32,≥ 32,≥ 32,≥ 32,≥ 32
"CC[C@H]1OC(=O)C(C)C(=O)[C@H](C)[C@@H](OC2OC(CN3CCN(C(C)=O)CC3)CC(N(C)C)C2O)[C@](C)(OC)C[C@@H](C)CN[C@H](C)[C@H]2NC(=O)O[C@@]21C (stereo partly shown) [Compound 125, 3-Descladinosyl-3-oxo-6-O-methyl-N9a-desmethyl-11,12-dideoxy-12,11-(oxycarbonylimino)-6′-(1-(4-acetyl)-piperazinyl) Azithromycin]",≥ 32,≥ 32,≥ 32,≥ 32,≥ 32
"CO[C@]1(C)C[C@@H](C)CN[C@H](C)[C@H]2NC(=O)O[C@]2(C)[C@@H](C)OC(=O)C(C)C(=O)[C@H](C)[C@H]1OC1OC(CN(C)C2CCC2)CC(N(C)C)C1O (stereo partly shown) [Compound 155, 3-Descladinosyl-3-oxo-6-O-methyl-N9a-desmethyl-11,12-dideoxy-12,11-(oxycarbonylimino)-6′-methylcyclobutylamino-13-methyl Azithromycin]",≥ 32,≥ 32,≤ 4,8 to 32,8 to 32
CC[C@H]1OC(=O)C(C)C(=O)[C@H](C)[C@@H](O[C@@H]2O[C@H](C(=O)O)CC(N(C)C)[C@H]2O)[C@](C)(OC)C[C@@H](C)CN[C@H](C)[C@H]2NC(=O)O[C@@]21C (stereo partly shown) [Compound 193],≥ 32,≥ 32,≥ 32,≥ 32,≥ 32
CC[C@H]1OC(=O)[C@@]2(C)CCOC(C)(C[C@@H](C)CN(C)[C@H](C)[C@H]3NC(=O)O[C@@]31C)[C@H](O[C@@H]1OC(C)CC(N(C)C)C1O)[C@@H](C)C2=O (stereo partly shown) [Compound 223],≥ 32,≤ 4,≤ 4,≤ 4,8 to 32
"CC[C@H]1OC(=O)C(C)C(=O)[C@H](C)[C@@H](OC2OC(CNCC(F)F)CC(N(C)C)C2O)[C@](C)(OC)C[C@@H](C)CN[C@H](C)[C@H]2NC(=O)O[C@@]21C (stereo partly shown) [Compound 136, 3-Descladinosyl-3-oxo-6-O-methyl-N9a-desmethyl-11,12-dideoxy-12,11-(oxycarbonylimino)-6′-difluoroethylamino Azithromycin]",≥ 32,8 to 32,≤ 4,8 to 32,≥ 32
CC[C@H]1OC(=O)[C@@]2(C)CCO[C@](C)(C[C@@H](C)CN[C@H](C)[C@H]3NC(=O)O[C@@]31C)[C@H](O[C@@H]1O[C@H](CO)C[C@H](N(C)C)[C@H]1O)[C@@H](C)C2=O [Compound 195],≥ 32,≥ 32,≥ 32,≥ 32,≥ 32
CC[C@H]1OC(=O)[C@]2(C)CCO[C@](C)(C[C@@H](C)CN[C@H](C)[C@H]3NC(=O)O[C@@]31C)[C@H](O[C@@H]1O[C@H](CNCc3cccnc3)C[C@H](N(C)C)[C@H]1O)[C@@H](C)C2=O [Compound 200],≥ 32,8 to 32,8 to 32,≥ 32,≥ 32
CC[C@H]1OC(=O)[C@@]2(C)CCOC(C)(C[C@@H](C)CN[C@H](C)[C@H]3NC(=O)O[C@@]31C)[C@H](O[C@@H]1OC(CNC3CC3)CC(N(C)C)C1O)[C@@H](C)C2=O (stereo partly shown) [Compound 80],8 to 32,≤ 4,≤ 4,≤ 4,8 to 32
"CC[C@H]1OC(=O)C(C)C(=O)[C@H](C)[C@@H](OC2OC(CNC(C)C)CC(N(C)C)C2O)[C@](C)(OC)C[C@@H](C)CN[C@H](C)[C@H]2NC(=O)O[C@@]21C (stereo partly shown) [Compound 109, 3-Descladinosyl-3-oxo-6-O-methyl-N9a-desmethyl-11,12-dideoxy-12,11-(oxycarbonylimino)-6′-isopropylamino Azithromycin]",≥ 32,≥ 32,8 to 32,≥ 32,≥ 32
"CC[C@H]1OC(=O)C(C)C(=O)[C@H](C)[C@@H](OC2OC(CNCC(F)(F)F)CC(N(C)C)C2O)[C@](C)(OC)C[C@@H](C)CN[C@H](C)[C@H]2NC(=O)O[C@@]21C (stereo partly shown) [Compound 112, 3-Descladinosyl-3-oxo-6-O-methyl-N9a-desmethyl-11,12-dideoxy-12,11-(oxycarbonylimino)-6′-(2-trifluoroethylamino) Azithromycin]",≥ 32,≤ 4,≤ 4,8 to 32,8 to 32
"CC[C@H]1OC(=O)C(C)C(=O)[C@H](C)[C@@H](OC2OC(CN3CCCCCC3)CC(N(C)C)C2O)[C@](C)(OC)C[C@@H](C)CN[C@H](C)[C@H]2NC(=O)O[C@@]21C (stereo partly shown) [Compound 124, 3-Desdadinosyl-3-oxo-6-O-methyl-N9a-desmethyl-11,12-dideoxy-12,11-(oxycarbonylimino)-6′-(1-azepanyl) Azithromycin]",≥ 32,≥ 32,≤ 4,8 to 32,≥ 32
CC[C@H]1OC(=O)[C@@](C)(F)C(=O)[C@H](C)[C@@H](O[C@@H]2OC(COCCO)CC(N(C)C)C2O)[C@](C)(OC)C[C@@H](C)C(=O)[C@H](C)[C@H]2NC(=O)O[C@@]21C (stereo partly shown) [Compound 103],≥ 32,≤ 4,≥ 32,≥ 32,≥ 32
